According to patent US20130095059A1, “INHALED NO DONOR KMUPS DERIVATIVE PREVENTING ALLERGIC PULMONARY VASCULAR AND BRONCHIAL INFLAMMATION VIA SUPPRESSED CYTOKINES, INOS AND INFLAMMATORY CELL COUNTS IN ASTHMA MODEL” (priority 2007, published 2013):

What was measured:
[1] = test system: RhoA; experiment: 5-HT-induced RhoA translocation in PASMCs; format: cell-based, Wistar rats; details: 24 h treatment, 1-100 μM
Experimental: Previous reports have shown that the active form of RhoA is translocated from the cytosol to the plasma membrane, where it activates Rho kinase. Therefore, the membrane/cytosol ratio of RhoA is considered a measure of RhoA activity. The cytosol and membrane protein of PASMCs were extracted with a CNM (cytosol, nuclear, membrane) kit. To assess membrane trans-location of RhoA, protein in membrane and cytosolic fractions was determined by standard Western blot analysis using mouse monoclonal anti-RhoA antibody (1:1000 dilution, Santa Cruz Biotechnology) and a peroxidase-labeled anti-mouse immunoglobulin (Ig) G antibody (1:1000 dilution, Santa Cruz Biotechnology, CA, USA). The relative density of membrane to cytosolic RhoA was determined using NIH imaging software.
(§1) The expression of RhoA/ROCK and phosphorylation of ERK1/2 and AKT kinase in PASMCs were assessed by incubating the PASMCs with 5-HT (10 μM) for 15 min (peak time for RhoA/ROCK, ERK1/2 and AKT phosphorylation) and 5-HTT for 10 min (peak time for 5-HTT) after KMUP-1 (1-100 μM) was added to the culture of PASMCs for 24 h.

[2] = test system: ERK1/2; experiment: 5-HT-induced ERK1/2 phosphorylation in PASMCs; format: cell-based, Wistar rats; details: 1-100 μM, 24 h pre-incubation
Experimental: PASMCs were stimulated with 5-HT or not, as indicated. Cells were treated with KMUP-1 for 24 h before 5-HT stimulation. Whole lysates were collected and resolved by SDS-PAGE as previously described. Primary antibodies were anti-β-actin at: 1:10,000 dilution and anti-RhoA, anti-ROCK, antiphospho-ERK1/2, anti-phospho-AKT, anti-ERK1/2, anti-AKT, anti-5HTT, anti-5-HT2B and anti-eNOS at 1:1000. All blots were incubated with antibodies at 4° C. overnight. After being washed, the appropriate secondary antibodies were added at a dilution of 1:1000 for 1 h at room temperature. After extensive washing, blots were developed with a Super Signal enhanced chemiluminescence kit (Biorad, CA, USA) and visualized on Kodak AR film.
as §1

[3] = test system: eNOS; experiment: Expression of eNOS in HPAEC; format: cell-based, human
Experimental: HPAEC purchased from ATCC were maintained in humidified incubator containing 5% CO2 at 37° C. HPAEC were cultured in F-12 supplemented with 10% fetal bovine serum. The culture medium was changed every 3 days and cells were subcultured until confluence. HPAEC were harvested with a solution of trypsin-EDTA (GIBCO BRL, NY, USA) while in a logarithmic phase of growth. HPAEC were used between passages 4-8.
To measure the expression of eNOS and 5-HT2B receptor in HPAEC after incubation with KMUP-1 (1-100 μM) for 24 h, whole lysates were collected for Western blotting assay. The relative density was determined using NIH imaging software.

[4] = test system: inflammatory cells; experiment: Ovalbumine model, histology of peri-vascular and peri-bronchiolar regions; format: in vivo, BALB/c mice; details: ovalbumine-exposed mice; nebulization 5 mM 30 min
Experimental: (§2) In this long-term experiment, 6-8 week old BALB/c female mice were sensitized on days 1 and 8 by intra-peritoneal injection (i.p.) of ovalbumine (10 μg) (Sigma-Aldrich, Schnelldorf, Germany) adsorbed to 2 mg aluminum hydroxide (AlumInject; Perbio, Erembodegem, Belgium). Mice were divided into three groups. In Group 1, a control group was only exposed to saline nebulization by aerosol. The other 2 groups were subjected to ovalbumine (1%) nebulization. Before each challenge with ovalbumine, mice were either exposed to saline nebulization (Group 2) or KMUP-1 nebulization (5 mM) for 30 min by aerosol (Group 3).
Sections of fixed embedded tissues were cut at […], placed on glass slides, deparaffinized and stained sequentially with hematoxylin 2 and eosin-Y (MUTO PURE CHEMICALS CO., LTD., Tokyo, Japan) (Tournoy K G, et al., 2000). To confirm the relationship between vascular inflammation/remodeling and expression of proteins, lung tissue sections from ovalbumine experiments were prepared and stained with hematoxylin-eosin as previously described (Hongo M, et al., 2000). Microphotography analysis of blood vessels and bronchioles, focusing on peri-bronchial and peri-vascular region in the lung sections, was performed using a color digital camera mounted on a computer-interfaced light microscope (Eclipse TE2000-S microscope, Nikon, Tokyo, Japan).

[5] = test system: sGCα1; experiment: Ovalbumine model, sGCα1 expression; format: in vivo, BALB/c mice; details: 28-day experiment; nebulization
Experimental: as §2
(§3) The lung tissues were homogenized, washed with PBS and incubated in lysis buffer in addition to a protease inhibitor cocktail (Sigma, St. Louis, Mo.) to obtain extracts of lung proteins. A Western blot analysis was performed as described previously (Wu B N, et al., 2006). The samples were loaded to 10% SDS-PAGE gels and were separated at 120 V for 90 min. The blots were incubated with anti-eNOS antibody diluted at a ratio of 1:500, anti-sGCα1 antibody diluted at a ratio of 1:2000, anti-PKG antibody diluted at a ratio of 1:500, anti-VCAM-1 antibody diluted at a ratio of 1:500, anti-ICAM-1 antibody diluted at a ratio of 1:500, and anti-MMP-9 antibody diluted at a ratio of 1:600 overnight at 4° C. […]

[6] = test system: PKG; experiment: Ovalbumine model, PKG expression; format: in vivo, BALB/c mice; details: 28-day experiment; nebulization
Experimental: as §2, §3

[7] = test system: eNOS; experiment: Ovalbumine model, eNOS immunostaining in lung sections; set-up: species or system BALB/c mice; details: mouse, in vivo
Experimental: as §2
Immunohistochemical analysis of eNOS enhancement by KMUP-1 was performed as follows. The lungs were perfused with saline followed by 10% formalin and then placed in 10% formalin for paraffin embedding. The lung tissues were cut into […] sections onto slides, dewaxed in 100% xylene, and then re-hydrated in graded alcohol solutions. Throughout the procedures, slides were washed as appropriate in PBS. Antigen retrieval was performed by microwave treatment for eNOS immunostaining. Sections were treated with 3% H2O2 (10 min) to inhibit endogenous peroxidases and incubated with normal serum (60 min) to reduce nonspecific binding of secondary antibodies. Sections were then incubated at 4° C. overnight with eNOS antibodies. […]

For `Cn1c(=O)c2c(ncn2CCN2CCN(c3ccccc3Cl)CC2)n(C)c1=O` [KMUP-1, 7-[2-[4-(2-chlorophenyl)piperazinyl]ethyl]-1,3-dimethylxanthine], the “5-HT-induced RhoA membrane association” value [1] was “dose-dependently reversed”, the “5-HT-stimulated ERK1/2 phosphorylation” value [2] was “concentration-dependently reduced” and the “expression of eNOS compared to 5-HT treatment alone” value ([3]; 10 μM, 24 h before adding 5-HT) was “raised”. The “eNOS expression in cultured HPAEC” value ([3]; 1-100 μM, 24 h) was “dose-dependently increased”, the “inflammatory cells in the peri-vascular and peri-bronchiolar regions” value [4] was “marked reductions” and the “decreased sGCα1 expression by ovalbumine sensitization” value [5] was “significantly reduced”. For the same molecule, the “decreased PKG expression by ovalbumine sensitization” value [6] was “significantly reduced” and the “ovalbumine-decreased vascular eNOS-immunostaining in lung sections” value [7] was “prevented this decrease”.
